The results in this text go back to ChEMBL document CHEMBL6096706, “Discovery of WDR5-MLL1 and HDAC Dual-Target Inhibitors for the Treatment of Acute Myeloid Leukemia” (J Med Chem, 2025).

Some results are limits rather than exact numbers.

In test [1] the target is Histone-lysine N-methyltransferase 2A/WDR5 (Homo sapiens, UniProt P61964). Briefly: Inhibition of MLL1/WDR5 (unknown origin) protein-protein interaction incubated for 2 hrs by FP analysis. Type of test: protein assay.
Another test addresses Histone deacetylase 1 (Homo sapiens, UniProt Q13547). Briefly: Inhibition of HDAC1 (unknown origin) by fluorescence based assay.
Another test addresses Histone deacetylase 3 (Homo sapiens, UniProt O15379). The test can be described thus: Inhibition of HDAC3 (unknown origin) by fluorescence based assay.
Test [2] concerns the target T1, Protein deacetylase HDAC6 (Homo sapiens, UniProt Q9UBN7).
T1 sequence (Q9UBN7 whole entry): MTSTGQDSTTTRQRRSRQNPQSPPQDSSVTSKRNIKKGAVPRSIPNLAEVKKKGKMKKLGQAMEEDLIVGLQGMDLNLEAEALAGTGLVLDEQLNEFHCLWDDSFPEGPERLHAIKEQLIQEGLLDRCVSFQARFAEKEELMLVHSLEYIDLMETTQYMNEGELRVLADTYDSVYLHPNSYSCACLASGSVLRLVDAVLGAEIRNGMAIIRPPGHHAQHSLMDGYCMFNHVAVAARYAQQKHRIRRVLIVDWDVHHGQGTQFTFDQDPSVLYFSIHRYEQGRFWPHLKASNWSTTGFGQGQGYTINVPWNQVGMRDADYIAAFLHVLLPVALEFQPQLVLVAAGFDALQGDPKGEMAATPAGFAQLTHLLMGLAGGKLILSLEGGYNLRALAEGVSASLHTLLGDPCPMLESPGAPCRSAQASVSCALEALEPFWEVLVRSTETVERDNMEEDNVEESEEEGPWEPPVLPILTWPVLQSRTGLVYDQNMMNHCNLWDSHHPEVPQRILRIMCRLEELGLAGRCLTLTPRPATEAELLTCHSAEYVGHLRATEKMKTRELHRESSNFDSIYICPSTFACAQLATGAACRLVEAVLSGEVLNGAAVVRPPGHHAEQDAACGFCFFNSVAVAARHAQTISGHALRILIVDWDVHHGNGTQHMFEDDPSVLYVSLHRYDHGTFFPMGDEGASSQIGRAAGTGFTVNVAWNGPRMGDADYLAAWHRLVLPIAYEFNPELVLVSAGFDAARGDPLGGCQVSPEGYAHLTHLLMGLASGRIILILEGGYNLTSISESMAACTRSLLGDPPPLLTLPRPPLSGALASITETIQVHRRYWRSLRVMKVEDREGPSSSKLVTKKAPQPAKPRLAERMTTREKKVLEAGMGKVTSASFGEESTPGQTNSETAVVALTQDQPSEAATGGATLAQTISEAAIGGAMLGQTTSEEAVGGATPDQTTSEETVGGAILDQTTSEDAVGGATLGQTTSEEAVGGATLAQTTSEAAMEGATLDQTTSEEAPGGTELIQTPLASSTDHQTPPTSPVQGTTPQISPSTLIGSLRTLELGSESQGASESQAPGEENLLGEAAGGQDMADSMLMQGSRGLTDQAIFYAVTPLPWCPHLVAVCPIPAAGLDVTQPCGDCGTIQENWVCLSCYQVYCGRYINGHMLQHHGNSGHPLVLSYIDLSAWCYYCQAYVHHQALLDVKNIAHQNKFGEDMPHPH
Briefly: Inhibition of HDAC6 (unknown origin) by fluorescence based assay.

Test [3] relates to MV4-11. Briefly: cells. The test is classed as functional, cell-based. Particulars: Homo sapiens, MV4-11, 72 h.
Description: Antiproliferative activity against human MV4-11 cells assessed as inhibition of cell growth measured after 72 hrs by CellTiterGlo assay
For a further test, the system named is MOLM-13. The test can be described thus: cells. Type of test: functional, cell-based. Particulars: Homo sapiens, MOLM-13, 72 h.
The target of a further test is Histone deacetylase 2 (Homo sapiens, UniProt Q92769). The test can be described thus: Inhibition of HDAC2 (unknown origin) by fluorescence based assay.
For the next test, the target named is T2, Histone deacetylase 8 (Homo sapiens, UniProt Q9BY41).
T2 sequence (Q9BY41 whole entry): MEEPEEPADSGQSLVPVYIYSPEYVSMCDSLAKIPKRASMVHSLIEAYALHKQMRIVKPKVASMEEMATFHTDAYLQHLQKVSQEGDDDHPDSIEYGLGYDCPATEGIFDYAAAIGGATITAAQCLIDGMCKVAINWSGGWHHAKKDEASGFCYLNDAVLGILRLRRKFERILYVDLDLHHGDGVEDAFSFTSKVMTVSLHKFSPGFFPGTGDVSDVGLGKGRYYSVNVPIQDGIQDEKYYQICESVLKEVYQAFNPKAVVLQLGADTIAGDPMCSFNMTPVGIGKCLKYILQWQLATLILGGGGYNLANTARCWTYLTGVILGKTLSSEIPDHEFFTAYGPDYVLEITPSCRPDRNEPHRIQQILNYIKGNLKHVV
The test can be described thus: Inhibition of HDAC8 (unknown origin) by fluorescence based assay.

The target of the next test is Histone deacetylase 4 (Homo sapiens, UniProt P56524). The test can be described thus: Inhibition of HDAC4 (unknown origin) by fluorescence based assay.
The next test concerns the target T3, Histone deacetylase 11 (Homo sapiens, UniProt Q96DB2).
T3 sequence (Q96DB2 whole entry): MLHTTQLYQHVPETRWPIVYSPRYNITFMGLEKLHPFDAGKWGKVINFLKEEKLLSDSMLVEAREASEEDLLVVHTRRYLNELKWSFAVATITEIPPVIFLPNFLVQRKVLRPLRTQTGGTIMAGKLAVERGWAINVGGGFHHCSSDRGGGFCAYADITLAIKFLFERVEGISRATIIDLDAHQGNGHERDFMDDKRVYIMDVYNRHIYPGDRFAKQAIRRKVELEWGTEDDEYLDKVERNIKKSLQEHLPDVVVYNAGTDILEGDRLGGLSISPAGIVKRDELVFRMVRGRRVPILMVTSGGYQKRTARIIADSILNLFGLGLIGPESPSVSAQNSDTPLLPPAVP
The test can be described thus: Inhibition of HDAC11 (unknown origin) by fluorescence based assay.

Test [4] concerns the target Histone-lysine N-methyltransferase 2A (Homo sapiens, UniProt Q03164). Briefly: Inhibition of MLL1 (unknown origin) by fluorescence based assay.
For test [5], the system named is MV4-11. Briefly: Induction of apoptosis in human MV4-11 cells assessed as viable cells at 200 nmol/L incubated for 72 hrs by Annexin V/PI staining based flow cytometry analysis (reference value: 90.23%). The test is classed as functional. Background: Flow cytometry measures light scatter and fluorescence of single cells or particles in a stream.
The subject of test [6] is MV4-11. Briefly: Induction of apoptosis in human MV4-11 cells assessed as early apoptotic cells at 200 nmol/L incubated for 72 hrs by Annexin V/PI staining based flow cytometry analysis (reference value: 4.17 %). Type of test: functional.
Test [7] concerns MV4-11. The test can be described thus: Induction of apoptosis in human MV4-11 cells assessed as late apoptotic cells at 200 nmol/L incubated for 72 hrs by Annexin V/PI staining based flow cytometry analysis (reference value: 5.14%). The test is classed as functional.
The test system of test [8] is MV4-11. Briefly: Induction of apoptosis in human MV4-11 cells assessed as necrotic cells at 200 nmol/L incubated for 72 hrs by Annexin V/PI staining based flow cytometry analysis (reference value: 0.46%). Type of test: functional.

Sequence of Histone deacetylase 1 (Q13547 whole entry): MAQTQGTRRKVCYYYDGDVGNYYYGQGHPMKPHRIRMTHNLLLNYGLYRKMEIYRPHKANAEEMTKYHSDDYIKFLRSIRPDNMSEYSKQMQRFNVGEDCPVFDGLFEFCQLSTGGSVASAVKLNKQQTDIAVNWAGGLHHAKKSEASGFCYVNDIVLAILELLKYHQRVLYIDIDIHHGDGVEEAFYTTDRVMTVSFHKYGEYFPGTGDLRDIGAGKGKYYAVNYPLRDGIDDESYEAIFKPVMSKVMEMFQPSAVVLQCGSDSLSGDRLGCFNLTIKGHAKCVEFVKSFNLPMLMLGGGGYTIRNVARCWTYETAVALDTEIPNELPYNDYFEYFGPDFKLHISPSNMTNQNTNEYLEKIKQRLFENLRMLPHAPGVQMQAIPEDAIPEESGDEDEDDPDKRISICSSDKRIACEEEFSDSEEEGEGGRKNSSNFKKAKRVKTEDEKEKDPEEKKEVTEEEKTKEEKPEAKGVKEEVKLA
Sequence of Histone deacetylase 3 (O15379 whole entry): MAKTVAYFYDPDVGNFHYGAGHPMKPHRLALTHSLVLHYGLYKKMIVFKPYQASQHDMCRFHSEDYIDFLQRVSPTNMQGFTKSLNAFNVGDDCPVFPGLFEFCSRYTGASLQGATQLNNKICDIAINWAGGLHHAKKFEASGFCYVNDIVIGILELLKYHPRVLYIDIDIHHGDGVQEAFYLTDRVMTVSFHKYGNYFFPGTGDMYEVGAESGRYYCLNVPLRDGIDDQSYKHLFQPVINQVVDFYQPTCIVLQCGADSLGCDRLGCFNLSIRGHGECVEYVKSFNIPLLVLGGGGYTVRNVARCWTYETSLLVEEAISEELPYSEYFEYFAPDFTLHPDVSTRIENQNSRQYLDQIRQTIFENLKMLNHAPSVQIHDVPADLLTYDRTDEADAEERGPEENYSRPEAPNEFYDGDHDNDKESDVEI
Sequence of Histone-lysine N-methyltransferase 2A (Q03164 1-2718 limits assumed): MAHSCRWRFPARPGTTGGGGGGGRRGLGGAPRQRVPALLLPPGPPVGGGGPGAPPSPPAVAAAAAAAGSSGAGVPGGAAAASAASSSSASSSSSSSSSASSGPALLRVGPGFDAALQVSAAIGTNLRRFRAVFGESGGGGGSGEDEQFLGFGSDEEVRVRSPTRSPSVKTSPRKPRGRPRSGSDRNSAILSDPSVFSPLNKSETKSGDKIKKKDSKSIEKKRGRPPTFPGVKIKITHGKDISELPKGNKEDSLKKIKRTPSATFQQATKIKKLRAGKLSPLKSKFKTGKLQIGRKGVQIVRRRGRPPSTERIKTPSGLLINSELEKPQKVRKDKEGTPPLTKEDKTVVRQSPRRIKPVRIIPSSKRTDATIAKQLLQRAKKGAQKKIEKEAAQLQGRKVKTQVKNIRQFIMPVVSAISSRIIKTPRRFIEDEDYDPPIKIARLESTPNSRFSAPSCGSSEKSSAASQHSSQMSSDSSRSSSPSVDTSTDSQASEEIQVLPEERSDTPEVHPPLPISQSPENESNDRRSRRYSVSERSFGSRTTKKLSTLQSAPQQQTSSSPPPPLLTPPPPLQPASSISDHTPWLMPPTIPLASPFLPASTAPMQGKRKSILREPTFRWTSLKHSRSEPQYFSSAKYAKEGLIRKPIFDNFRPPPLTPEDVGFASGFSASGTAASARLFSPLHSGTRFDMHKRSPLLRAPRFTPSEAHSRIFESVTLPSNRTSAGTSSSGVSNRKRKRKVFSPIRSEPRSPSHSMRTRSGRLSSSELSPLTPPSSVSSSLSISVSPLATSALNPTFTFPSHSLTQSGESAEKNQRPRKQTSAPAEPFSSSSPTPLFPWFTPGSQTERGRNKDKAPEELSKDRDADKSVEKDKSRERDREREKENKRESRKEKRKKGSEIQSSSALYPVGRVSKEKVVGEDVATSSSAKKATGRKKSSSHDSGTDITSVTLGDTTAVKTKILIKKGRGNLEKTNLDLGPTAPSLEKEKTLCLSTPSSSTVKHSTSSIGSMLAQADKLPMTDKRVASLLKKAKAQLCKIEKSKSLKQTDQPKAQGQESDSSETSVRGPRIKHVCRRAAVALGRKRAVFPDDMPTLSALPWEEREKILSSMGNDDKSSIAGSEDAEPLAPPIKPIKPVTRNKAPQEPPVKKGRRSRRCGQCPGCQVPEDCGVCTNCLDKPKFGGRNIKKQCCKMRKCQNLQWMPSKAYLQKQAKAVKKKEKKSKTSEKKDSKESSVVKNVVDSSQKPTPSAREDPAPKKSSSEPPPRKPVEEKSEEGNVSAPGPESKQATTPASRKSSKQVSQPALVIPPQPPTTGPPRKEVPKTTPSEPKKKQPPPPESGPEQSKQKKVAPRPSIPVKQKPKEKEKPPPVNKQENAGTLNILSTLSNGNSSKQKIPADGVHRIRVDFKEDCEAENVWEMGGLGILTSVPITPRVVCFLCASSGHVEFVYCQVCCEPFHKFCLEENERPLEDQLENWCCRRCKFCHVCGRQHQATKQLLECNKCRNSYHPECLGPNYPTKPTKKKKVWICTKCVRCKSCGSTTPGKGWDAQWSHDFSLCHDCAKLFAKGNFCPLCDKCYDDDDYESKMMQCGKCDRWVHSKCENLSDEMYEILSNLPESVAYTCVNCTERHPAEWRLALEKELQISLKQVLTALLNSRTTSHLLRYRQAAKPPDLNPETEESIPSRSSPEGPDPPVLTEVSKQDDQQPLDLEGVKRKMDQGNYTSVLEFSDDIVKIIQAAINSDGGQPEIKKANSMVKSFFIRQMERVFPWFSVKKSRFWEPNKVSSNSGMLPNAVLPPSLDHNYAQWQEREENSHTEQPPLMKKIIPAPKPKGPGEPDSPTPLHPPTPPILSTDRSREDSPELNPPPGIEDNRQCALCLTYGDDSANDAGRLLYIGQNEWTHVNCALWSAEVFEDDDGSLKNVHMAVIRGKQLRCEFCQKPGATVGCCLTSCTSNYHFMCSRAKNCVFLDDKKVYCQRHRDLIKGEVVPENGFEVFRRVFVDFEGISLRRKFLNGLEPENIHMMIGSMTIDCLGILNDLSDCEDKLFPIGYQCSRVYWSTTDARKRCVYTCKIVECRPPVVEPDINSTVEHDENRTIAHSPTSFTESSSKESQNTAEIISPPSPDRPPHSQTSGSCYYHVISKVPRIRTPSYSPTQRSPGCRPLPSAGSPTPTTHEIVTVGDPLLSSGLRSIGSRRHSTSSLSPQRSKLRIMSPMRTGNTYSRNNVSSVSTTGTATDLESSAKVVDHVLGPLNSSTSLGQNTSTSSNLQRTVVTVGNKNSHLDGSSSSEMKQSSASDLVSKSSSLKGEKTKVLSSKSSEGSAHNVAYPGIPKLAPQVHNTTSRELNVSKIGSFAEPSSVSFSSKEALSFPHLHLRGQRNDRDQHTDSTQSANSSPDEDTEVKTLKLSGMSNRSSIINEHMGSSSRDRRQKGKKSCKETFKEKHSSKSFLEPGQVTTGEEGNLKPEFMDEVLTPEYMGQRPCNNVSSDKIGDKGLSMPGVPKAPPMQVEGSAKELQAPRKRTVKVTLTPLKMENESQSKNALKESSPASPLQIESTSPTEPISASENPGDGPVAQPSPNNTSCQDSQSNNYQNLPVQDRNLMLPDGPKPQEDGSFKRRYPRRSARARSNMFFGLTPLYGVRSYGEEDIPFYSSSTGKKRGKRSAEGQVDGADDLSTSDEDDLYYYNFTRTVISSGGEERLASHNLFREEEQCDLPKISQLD
Sequence of Histone-lysine N-methyltransferase 2A (Q03164 2719-3969 limits assumed): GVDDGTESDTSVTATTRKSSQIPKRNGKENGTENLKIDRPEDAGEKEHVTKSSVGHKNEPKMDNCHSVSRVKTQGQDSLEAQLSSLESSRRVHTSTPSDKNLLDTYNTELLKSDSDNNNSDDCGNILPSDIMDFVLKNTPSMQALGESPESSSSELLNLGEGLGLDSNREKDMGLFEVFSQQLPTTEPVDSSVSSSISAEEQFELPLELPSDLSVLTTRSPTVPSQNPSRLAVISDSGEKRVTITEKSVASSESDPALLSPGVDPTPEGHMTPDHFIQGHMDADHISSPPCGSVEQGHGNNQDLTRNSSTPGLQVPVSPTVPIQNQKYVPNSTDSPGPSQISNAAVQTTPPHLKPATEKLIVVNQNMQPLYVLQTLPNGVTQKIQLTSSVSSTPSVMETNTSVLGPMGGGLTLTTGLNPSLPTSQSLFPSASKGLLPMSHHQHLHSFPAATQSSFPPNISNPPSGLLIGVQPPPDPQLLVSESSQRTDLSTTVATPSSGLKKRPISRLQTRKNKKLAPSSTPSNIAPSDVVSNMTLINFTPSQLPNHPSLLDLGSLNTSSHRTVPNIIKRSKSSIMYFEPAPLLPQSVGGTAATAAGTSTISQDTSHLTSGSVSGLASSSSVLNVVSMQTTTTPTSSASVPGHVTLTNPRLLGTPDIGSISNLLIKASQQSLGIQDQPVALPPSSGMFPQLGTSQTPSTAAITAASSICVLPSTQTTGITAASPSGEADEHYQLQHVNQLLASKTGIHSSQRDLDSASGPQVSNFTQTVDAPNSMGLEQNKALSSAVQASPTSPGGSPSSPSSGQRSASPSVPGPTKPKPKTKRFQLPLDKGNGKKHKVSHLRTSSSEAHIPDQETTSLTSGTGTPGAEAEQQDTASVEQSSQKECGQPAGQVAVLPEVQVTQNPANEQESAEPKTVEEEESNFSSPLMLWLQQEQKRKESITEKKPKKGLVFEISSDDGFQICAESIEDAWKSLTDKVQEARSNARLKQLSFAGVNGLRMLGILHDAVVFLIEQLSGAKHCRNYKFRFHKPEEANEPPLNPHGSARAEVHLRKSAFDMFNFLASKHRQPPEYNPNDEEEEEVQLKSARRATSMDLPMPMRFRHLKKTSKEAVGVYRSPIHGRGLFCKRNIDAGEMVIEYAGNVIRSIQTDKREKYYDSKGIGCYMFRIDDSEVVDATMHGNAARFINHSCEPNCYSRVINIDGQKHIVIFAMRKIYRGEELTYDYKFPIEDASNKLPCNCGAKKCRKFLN
Description for MOLM-13: Antiproliferative activity against human MOLM-13 cells assessed as inhibition of cell growth measured after 72 hrs by CellTiterGlo assay

As a reminder, the IC50 is the concentration that inhibits the measured activity by half. High values mean weaker potency, low ones greater potency. Take `Cc1c(F)c(N)cc(C(=O)Nc2cc(-c3ccc(NC(=O)Cc4ccc(/C=C/C(=O)NO)cc4)cc3)ccc2N2CCN(C)CC2)c1Cl`: the IC50 in test [1] turned out to be 0.069 µM; on Histone deacetylase 1 it was 0.831 µM; against Histone deacetylase 3, 0.663 µM; in test [2], 0.157 µM; with MV4-11 [3], 0.115 µM; with MOLM-13, 0.31 µM.
In turn, `Cc1c(F)c(N)cc(C(=O)Nc2cc(-c3ccc(NC(=O)c4ccc(CC(=O)NO)cc4)cc3)ccc2N2CCN(C)CC2)c1Cl` had a half-maximal inhibitory concentration (IC50) in [1] of 0.226 µM.
As for `Cc1c(F)c(N)cc(C(=O)Nc2cc(-c3ccc(NC(=O)CCc4ccc(/C=C/C(=O)NO)cc4)cc3)ccc2N2CCN(C)CC2)c1Cl`, the IC50 is 0.382 µM in [1]; 0.925 µM on Histone deacetylase 1; 0.586 µM against Histone deacetylase 3; 0.157 µM in [2]; 0.145 µM in the test with MV4-11 [3]; 3.22 µM in the test with MOLM-13.
For `Cc1c(F)c(N)cc(C(=O)Nc2cc(-c3ccc(NC(=O)CCCCCC(=O)NO)cc3)ccc2N2CCN(C)CC2)c1Cl`, the IC50 in test [1] was found to be 0.181 µM.
On the same count and under the same terms, the value for `Cc1c(F)c(N)cc(C(=O)Nc2cc(-c3ccc(C(=O)NCCCCC(=O)NO)cc3)ccc2N2CCN(C)CC2)c1Cl` was 0.04 µM; that for `Cc1c(F)c(N)cc(C(=O)Nc2cc(-c3ccc(C(=O)NCCCCCC(=O)NO)cc3)ccc2N2CCN(C)CC2)c1Cl` was 0.071 µM; that for `Cc1c(F)c(N)cc(C(=O)Nc2cc(-c3ccc(NC(=O)CCCCCCCC(=O)NO)cc3)ccc2N2CCN(C)CC2)c1Cl` was 0.23 µM.
Still for that read-out and setting: the value for `Cc1c(F)c(N)cc(C(=O)Nc2cc(-c3ccc(NC(=O)CCCCC(=O)NO)cc3)ccc2N2CCN(C)CC2)c1Cl` was 0.033 µM.
With `Cc1c(F)c(N)cc(C(=O)Nc2cc(-c3ccc(NC(=O)CCCC(=O)NO)cc3)ccc2N2CCN(C)CC2)c1Cl`, the IC50 in test [1] amounted to 0.043 µM.
For `Cc1c(F)c(N)cc(C(=O)Nc2cc(-c3ccc(NC(=O)CCCCCCC(=O)NO)cc3)ccc2N2CCN(C)CC2)c1Cl`, the IC50 in test [1] is 0.041 µM; at Histone deacetylase 2, 0.099 µM; on Histone deacetylase 8, over 10 µM; against Histone deacetylase 4, 3.96 µM; against Histone deacetylase 11 it was 7.61 µM; in test [4] it was 0.392 µM.
In test [1], `Cc1c(F)c(N)cc(C(=O)Nc2cc(-c3ccc(C(=O)NCCCCCCC(=O)NO)cc3)ccc2N2CCN(C)CC2)c1Cl` gave an IC50 of 0.04 µM.
Same read-out and setting: to `Cc1c(F)c(N)cc(C(=O)Nc2cc(-c3ccc(C(=O)NCCCCCCCC(=O)NO)cc3)ccc2N2CCN(C)CC2)c1Cl` belongs 0.188 µM.
For the compound `Cc1c(F)c(N)cc(C(=O)Nc2cc(-c3ccc(NC(=O)c4ccc(/C=C/C(=O)NO)cc4)cc3)ccc2N2CCN(C)CC2)c1Cl`, the IC50 in test [1] came to 0.435 µM; at Histone deacetylase 1, 6.98 µM; on Histone deacetylase 3, 5.9 µM; in test [2], 1.2 µM; in the test with MV4-11 [3], 0.122 µM; in the test with MOLM-13 it was 2.58 µM.
On to `Cc1c(F)c(N)cc(C(=O)Nc2cc(-c3ccc(C(=O)Nc4ccccc4N)cc3)ccc2N2CCN(C)CC2)c1Cl`, for which the IC50 in [1] turned out to be 0.215 µM. In other words, the sub-micromolar range.
The same measure, in the same setting: to `Cc1c(F)c(N)cc(C(=O)Nc2cc(-c3ccc(C(=O)NCCCC(=O)NO)cc3)ccc2N2CCN(C)CC2)c1Cl` belongs 0.03 µM; to `Cc1c(F)c(N)cc(C(=O)Nc2cc(-c3ccc(NC(=O)Cc4ccc(C(=O)NO)cc4)cc3)ccc2N2CCN(C)CC2)c1Cl`, 0.087 µM.
Regarding `Cc1c(F)c(N)cc(C(=O)Nc2cc(-c3ccc(NC(=O)c4ccccc4N)cc3)ccc2N2CCN(C)CC2)c1Cl`, the IC50 stood at 0.41 µM in [1] and 10 µM against Histone deacetylase 3.
On to `O=C(CCCCCCC(=O)Nc1ccccc1)NO` [VORINOSTAT], for which the Activity was 63.59% in the test on MV4-11 [5], 14.43% in the test on MV4-11 [6], 20.55% in the test on MV4-11 [7] and 1.42% in the test with MV4-11 [8].
